These results are taken from PubChem BioAssay (NCI).

Some test systems named below: CCRF-CEM leukemia; HCT-15 colon; HL-60(TB) leukemia; MOLT-4 leukemia; NCI-H460 lung; RPMI-8226 leukemia; SF-295 CNS; SF-539 CNS; SW-620 colon; SK-MEL-28 melanoma.
What all share (assay): inhibition of tumour cell growth, NCI panel, 48 h

Where “and” joins values, the source holds several entries; their conditions need not be identical. Equal entries are not always repeated.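 These data come from cells grown in 96-well plates and exposed to compound for 48 hours at five concentrations. Here, GI50 denotes the concentration required for 50% inhibition of growth. TGI marks complete inhibition of growth.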

For `CC(C)c1cc2c(O)c(c1)Cc1cc(C(C)C)cc(c1O)Cc1cc(C(C)C)cc(c1O)Cc1cc(C(C)C)cc(c1O)C2`, the TGI in the assay on CCRF-CEM leukemia, in the assay with HCT-15 colon, with HL-60(TB) leukemia, in the assay on MOLT-4 leukemia, with NCI-H460 lung and with RPMI-8226 leukemia was above 100 µM each time. Also, the TGI with SF-295 CNS, with SF-539 CNS and with SW-620 colon was above 100 µM each time.
For `Fc1ccc(C2SCc3nc4ccccc4n32)cc1Cl` (centres undefined), the TGI was 87.4 µM in the assay on CCRF-CEM leukemia; 47.6 µM in the assay with HL-60(TB) leukemia; 69.9 µM in the assay on MOLT-4 leukemia; above 100 µM in the assay with NCI-H460 lung; 98.1 µM in the assay with SF-295 CNS; 43.8 µM with SF-539 CNS. The TGI was 61.2 µM in the assay on SK-MEL-28 melanoma and above 100 µM with SW-620 colon.
Regarding `CS(=O)(=O)c1cc(=O)c2ccccc2s1`, the TGI in the assay with CCRF-CEM leukemia worked out at 3.93 µM; in the assay on HCT-15 colon it was 4.86 µM; in the assay on HL-60(TB) leukemia, 6.45 µM; with MOLT-4 leukemia, 3.92 µM; with NCI-H460 lung, 41.2 µM; in the assay with SF-295 CNS it was 24.8 µM. The TGI with SF-539 CNS came out at 27.6 µM; in the assay on SK-MEL-28 melanoma, 7.5 µM; in the assay with SW-620 colon it was 3.4 µM.
Turning to `CC(C)CCCC(=O)CCCCCCC(=O)CCN(O)C(=O)C(N)CO` (centres undefined), the TGI was above 100 µM with CCRF-CEM leukemia; 42.6 µM with HCT-15 colon; 60.2 µM with HL-60(TB) leukemia; above 100 µM in the assay with MOLT-4 leukemia; 57.5 µM in the assay on RPMI-8226 leukemia; 36.3 µM in the assay with SF-295 CNS. In addition, the results for the TGI in the assay on SF-539 CNS, in the assay on SK-MEL-28 melanoma and in the assay with SW-620 colon were 37.4 µM, 41.5 µM and above 100 µM, respectively.
With `COc1cc2c(c(OC)c1OC)C(=O)[C@@H]1c3ccc([N+](=O)[O-])cc3C(=O)N(CCCBr)[C@H]21`, the GI50 in the assay with HCT-15 colon was 20.3 µM; with HL-60(TB) leukemia, 64.2 µM; with MOLT-4 leukemia, 19.8 µM; with NCI-H460 lung, 8.15 µM; in the assay on RPMI-8226 leukemia it was 14.8 µM; in the assay on SF-295 CNS it was 2.04 µM. Further, the GI50 was 11.8 µM in the assay on SF-539 CNS, 33.1 µM in the assay with SK-MEL-28 melanoma and 20 µM in the assay on SW-620 colon. Moreover, the TGI with HCT-15 colon was above 100 µM; in the assay on HL-60(TB) leukemia, above 100 µM; in the assay on MOLT-4 leukemia, above 100 µM; with NCI-H460 lung, 62.2 µM; with RPMI-8226 leukemia it was 91.1 µM; in the assay on SF-295 CNS, 19.7 µM. The TGI in the assay with SF-539 CNS was 38.7 µM; in the assay with SK-MEL-28 melanoma it was above 100 µM; in the assay with SW-620 colon, above 100 µM.
Turning to `COc1ccc(/C=C\c2cc(OC)c(OC)c(OC)c2)cc1OC(=O)NCCN(C)C`, the TGI is 0.00338 µM in the assay on HL-60(TB) leukemia; below 0.0494 µM in the assay with MOLT-4 leukemia; 0.00485 µM with NCI-H460 lung; 0.00328 µM in the assay on SF-539 CNS; 43.1 µM in the assay with SK-MEL-28 melanoma. For the same molecule, the GI50 in the assay with SK-MEL-28 melanoma was below 0.0001 µM.
`COc1ncc(-c2ccc3ncnc(Nc4cccc(Cl)c4)c3c2)cc1NS(=O)(=O)CCN1CCOCC1`: the GI50 in the assay on CCRF-CEM leukemia was 0.799 µM; in the assay on HCT-15 colon, 0.448 µM; in the assay on HL-60(TB) leukemia it was 0.38 µM; in the assay with NCI-H460 lung it was 0.393 µM; in the assay on RPMI-8226 leukemia, 1.23 µM; with SW-620 colon it was 1.25 µM. The TGI in the assay with CCRF-CEM leukemia, in the assay with HCT-15 colon, in the assay on HL-60(TB) leukemia, with NCI-H460 lung, with RPMI-8226 leukemia and in the assay on SW-620 colon was above 100 µM each time.
As to `COc1ccc2nc3cc(Cl)ccc3c(NCCN)c2c1`, the GI50 was 1.42 µM in the assay with CCRF-CEM leukemia; 1.87 µM in the assay with HCT-15 colon; 2.16 µM in the assay with HL-60(TB) leukemia; 1.25 µM in the assay with MOLT-4 leukemia; 2.04 µM in the assay on RPMI-8226 leukemia; 1.45 µM in the assay with SW-620 colon. In addition, the TGI was 5.39 µM in the assay with CCRF-CEM leukemia; 3.9 µM in the assay with HCT-15 colon; 4.67 µM in the assay with HL-60(TB) leukemia; 3.68 µM with MOLT-4 leukemia; 5.07 µM in the assay on RPMI-8226 leukemia; 3.25 µM in the assay with SW-620 colon.
With `COC(C(O)c1ccc2c(c1)OCO2)P(=O)(c1ccccc1)c1ccccc1` (centres undefined), the TGI in the assay on CCRF-CEM leukemia, in the assay with HL-60(TB) leukemia, in the assay with MOLT-4 leukemia, in the assay with NCI-H460 lung, with SF-539 CNS and with SK-MEL-28 melanoma was above 100 µM in each case. The same molecule returned a TGI in the assay with SW-620 colon above 100 µM.
`CC[CH2][Sn]([Cl])([Cl])[CH2]CC.Oc1ccccc1C=NCCN=Cc1ccccc1O`: the GI50 is 2.16 µM in the assay on CCRF-CEM leukemia; 9.63 µM in the assay with HCT-15 colon; 4.88 µM in the assay on MOLT-4 leukemia; 15.6 µM in the assay with NCI-H460 lung; 3.35 µM in the assay on RPMI-8226 leukemia; 14.7 µM with SF-295 CNS. Besides, the GI50 was 10.5 µM with SF-539 CNS, 8.7 µM with SK-MEL-28 melanoma and 1.8 µM in the assay with SW-620 colon. In addition, the TGI in the assay on CCRF-CEM leukemia is 41.8 µM; in the assay on HCT-15 colon it was 24.8 µM; in the assay on MOLT-4 leukemia, above 100 µM; with NCI-H460 lung it was 33 µM; with RPMI-8226 leukemia, 8.33 µM; in the assay with SF-295 CNS, 32.7 µM. For the same molecule, the figures for the TGI in the assay with SF-539 CNS, in the assay on SK-MEL-28 melanoma and in the assay with SW-620 colon were 24.2 µM, 21.6 µM and 3.82 µM, respectively.
As to `CC(C)(C)c1ccc(O)c(CN(Cc2cc(C(C)(C)C)ccc2O)c2ccccc2)c1`, the TGI in the assay on CCRF-CEM leukemia is above 100 µM; in the assay on HCT-15 colon, 35.8 µM; in the assay on MOLT-4 leukemia, 37.8 µM; with NCI-H460 lung, 30.9 µM; in the assay with RPMI-8226 leukemia, 47.7 µM; with SF-295 CNS, 37.4 µM. Further, the TGI in the assay with SF-539 CNS turned out to be 32 µM; with SK-MEL-28 melanoma, 32.4 µM; in the assay with SW-620 colon, 37.6 µM.
As for `NCCCn1c2c(c3ccc([N+](=O)[O-])cc3c1=O)C(=O)c1cc(Br)ccc1-2`, the GI50 was 0.0033 µM in the assay on CCRF-CEM leukemia; 0.035 µM in the assay with HCT-15 colon; 0.000746 µM with NCI-H460 lung; 0.163 µM with SF-295 CNS; 0.0132 µM and 0.0109 µM in the assay on SF-539 CNS; 0.0715 µM with SK-MEL-28 melanoma. Moreover, in the assay on SW-620 colon, the GI50 is 0.00106 µM. Also, the TGI in the assay on CCRF-CEM leukemia was 0.0159 µM; in the assay with HCT-15 colon it was 0.155 µM and 0.0641 µM; with NCI-H460 lung it was 0.113 µM; with SF-539 CNS, 0.0699 µM and 0.0472 µM; in the assay with SW-620 colon, 0.132 µM.
